From ChEMBL document CHEMBL5257103, “Identification of small molecule inhibitors against MMP-14 via High-Throughput screening” (Bioorg Med Chem, 2023) come the findings set out here.

In data set [1] the target is 72 kDa type IV collagenase (Mus musculus) (UniProt P33434). The data set is described as follows: Inhibition of MMP-2 in mouse fibroblast assessed as reduction in concanavalin-induced MMP-2 activity by measuring gelatin digestion incubated for 24 hrs by SDS-PAGE gel electrophoresis based gelatin zymography analysis. It counts as cell-based.
For data set [2], the target named is T1, Matrix metalloproteinase-14 (Homo sapiens, UniProt P50281). The experiment in a line: Inhibition of MMP-14 (unknown origin) using 5-FAM-TDVPNGFHVS (QXL520)-NH2 as fluorogenic substrate preincubated for 10 mins followed by substrate addition and measured for 50 mins by microplate reader assay.
Data set [3] addresses T1, Matrix metalloproteinase-14. The data set is described as follows: Inhibition of MMP-14 (unknown origin) using 5-FAM-TDVPNGFHVS (QXL520)-NH2 as fluorogenic substrate at 12.5 to 200 uM preincubated for 10 mins followed by substrate addition and measured for 50 mins by microplate reader assay. The settings on record: dose 12.5-200 µM, time 60.0 min.
The target is the same in data set [4]. The data set is described as follows: Inhibition of MMP-14 (unknown origin) using 5-FAM-TDVPNGFHVS (QXL520)-NH2 as fluorogenic substrate at 47.6 uM preincubated for 10 mins followed by substrate addition by primary HTS analysis relative to control.
Data set [5] shares this target. The data set is described as follows: Binding affinity to […] sensor chip immobilized MMP-14 catalytic domain (unknown origin) assessed as equilibrium dissociation constant by surface plasmon resonance analysis.
Data set [6] can be described thus: Cytotoxicity against human HUVEC cells assessed as cell viability upto 100 uM incubated for 4 hrs by MTS assay. It counts as toxicity, cell-based. The conditions noted are these: read-out: Activity.
Data set [7] concerns the target 72 kDa type IV collagenase (Homo sapiens) (UniProt P08253). The data set is described as follows: Inhibition of MMP-2 (unknown origin) using QXL520-gamma-Abu-Pro-Cha-Abu-Smc-His-Ala-Dab(5-FAM)-Ala-Lys-NH2 as fluorogenic substrate at 1 to 100 uM preincubated for 10 mins followed by substrate addition and measured for 25 mins by microplate reader assay. The settings on record: dose 1-100 µM, time 35.0 min.

In data set [8] the target is T2, Matrilysin (Homo sapiens) (UniProt P09237).
T2 sequence (whole entry): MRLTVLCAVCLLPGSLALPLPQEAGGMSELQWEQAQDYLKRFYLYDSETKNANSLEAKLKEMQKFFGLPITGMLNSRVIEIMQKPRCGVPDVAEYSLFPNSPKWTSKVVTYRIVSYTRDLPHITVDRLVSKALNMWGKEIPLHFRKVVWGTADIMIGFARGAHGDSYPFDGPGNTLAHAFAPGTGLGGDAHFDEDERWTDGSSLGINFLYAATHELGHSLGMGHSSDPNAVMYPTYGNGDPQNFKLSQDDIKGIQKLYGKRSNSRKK
The data set is described as follows: Inhibition of MMP-7 (unknown origin) using QXL520-gamma-Abu-Pro-Cha-Abu-Smc-His-Ala-Dab(5-FAM)-Ala-Lys-NH2 as fluorogenic substrate at 1 to 100 uM preincubated for 10 mins followed by substrate addition and measured for 25 mins by microplate reader assay. The conditions noted are these: dose 1-100 µM, time 35.0 min.

Data set [9] deals with T3, Matrix metalloproteinase-9 (Homo sapiens, UniProt P14780). The data set is described as follows: Inhibition of MMP-9 (unknown origin) using QXL520-gamma-Abu-Pro-Cha-Abu-Smc-His-Ala-Dab(5-FAM)-Ala-Lys-NH2 as fluorogenic substrate preincubated for 10 mins followed by substrate addition and measured for 25 mins by microplate reader assay.
In data set [10] the target is T4, Collagenase 3 (Homo sapiens, UniProt P45452). The experiment in a line: Inhibition of MMP-13 (unknown origin) using QXL520-gamma-Abu-Pro-Cha-Abu-Smc-His-Ala-Dab(5-FAM)-Ala-Lys-NH2 as fluorogenic substrate preincubated for 10 mins followed by substrate addition and measured for 25 mins by microplate reader assay.
Data set [11] has as its target T4, Collagenase 3. The data set is described as follows: Inhibition of MMP-13 (unknown origin) using QXL520-gamma-Abu-Pro-Cha-Abu-Smc-His-Ala-Dab(5-FAM)-Ala-Lys-NH2 as fluorogenic substrate at 1 to 100 uM preincubated for 10 mins followed by substrate addition and measured for 25 mins by microplate reader assay. The conditions noted are these: dose 1-100 µM, time 35.0 min.

The target in data set [12] is 72 kDa type IV collagenase (Homo sapiens) (UniProt P08253). The experiment in a line: Inhibition of MMP-2 (unknown origin) using QXL520-gamma-Abu-Pro-Cha-Abu-Smc-His-Ala-Dab(5-FAM)-Ala-Lys-NH2 as fluorogenic substrate at 100 uM preincubated for 10 mins followed by substrate addition and measured for 25 mins by microplate reader assay. The settings on record: time 35.0 min.

Data set [13] concerns the target T4, Collagenase 3. The experiment in a line: Inhibition of MMP-13 (unknown origin) using QXL520-gamma-Abu-Pro-Cha-Abu-Smc-His-Ala-Dab(5-FAM)-Ala-Lys-NH2 as fluorogenic substrate at 100 uM preincubated for 10 mins followed by substrate addition and measured for 25 mins by microplate reader assay. The settings on record: time 35.0 min.
For data set [14], the target named is T3, Matrix metalloproteinase-9. The experiment in a line: Inhibition of MMP-9 (unknown origin) using QXL520-gamma-Abu-Pro-Cha-Abu-Smc-His-Ala-Dab(5-FAM)-Ala-Lys-NH2 as fluorogenic substrate at 100 uM preincubated for 10 mins followed by substrate addition and measured for 25 mins by microplate reader assay. The settings on record: time 35.0 min.
For data set [15], the target named is T3, Matrix metalloproteinase-9. The data set is described as follows: Inhibition of MMP-9 (unknown origin) using QXL520-gamma-Abu-Pro-Cha-Abu-Smc-His-Ala-Dab(5-FAM)-Ala-Lys-NH2 as fluorogenic substrate at 1 to 100 uM preincubated for 10 mins followed by substrate addition and measured for 25 mins by microplate reader assay. The settings on record: dose 1-100 µM, time 35.0 min.

Data set [16] has as its target T2, Matrilysin (Homo sapiens). The experiment in a line: Inhibition of MMP-7 (unknown origin) using QXL520-gamma-Abu-Pro-Cha-Abu-Smc-His-Ala-Dab(5-FAM)-Ala-Lys-NH2 as fluorogenic substrate at 100 uM preincubated for 10 mins followed by substrate addition and measured for 25 mins by microplate reader assay. The settings on record: time 35.0 min.

Structures are written as SMILES. pIC50, pKd: −log10 of the molar value. Calls of active or inactive are those of the source. The rule behind the calls is not given here.

Usually inhibition stands for the share of the control response that was lost under treatment. In general, pIC50 refers to the IC50 on a negative log10 scale, so that one unit is a factor of ten. As a reminder, the pKd is the negative decadic logarithm of the Kd, by convention in mol/L.

Chain of 72 kDa type IV collagenase (Mus musculus) (P33434 whole entry): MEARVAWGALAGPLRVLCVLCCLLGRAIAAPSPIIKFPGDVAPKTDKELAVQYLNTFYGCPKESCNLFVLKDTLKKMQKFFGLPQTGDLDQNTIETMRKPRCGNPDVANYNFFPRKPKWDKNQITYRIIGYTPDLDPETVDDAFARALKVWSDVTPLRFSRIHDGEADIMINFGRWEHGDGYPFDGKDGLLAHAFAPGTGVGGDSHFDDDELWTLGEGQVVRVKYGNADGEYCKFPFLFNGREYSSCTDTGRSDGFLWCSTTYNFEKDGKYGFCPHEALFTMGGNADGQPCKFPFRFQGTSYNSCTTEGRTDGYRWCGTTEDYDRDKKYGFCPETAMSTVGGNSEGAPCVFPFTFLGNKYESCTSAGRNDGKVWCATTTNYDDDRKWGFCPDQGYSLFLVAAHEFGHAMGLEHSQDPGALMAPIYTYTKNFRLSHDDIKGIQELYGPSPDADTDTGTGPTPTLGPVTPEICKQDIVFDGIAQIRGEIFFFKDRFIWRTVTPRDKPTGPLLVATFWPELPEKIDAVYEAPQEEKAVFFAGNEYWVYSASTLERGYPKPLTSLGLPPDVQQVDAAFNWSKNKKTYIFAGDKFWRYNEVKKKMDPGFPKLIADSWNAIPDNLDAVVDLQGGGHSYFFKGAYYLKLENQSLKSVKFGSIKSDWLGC
T3 sequence (P14780 whole entry): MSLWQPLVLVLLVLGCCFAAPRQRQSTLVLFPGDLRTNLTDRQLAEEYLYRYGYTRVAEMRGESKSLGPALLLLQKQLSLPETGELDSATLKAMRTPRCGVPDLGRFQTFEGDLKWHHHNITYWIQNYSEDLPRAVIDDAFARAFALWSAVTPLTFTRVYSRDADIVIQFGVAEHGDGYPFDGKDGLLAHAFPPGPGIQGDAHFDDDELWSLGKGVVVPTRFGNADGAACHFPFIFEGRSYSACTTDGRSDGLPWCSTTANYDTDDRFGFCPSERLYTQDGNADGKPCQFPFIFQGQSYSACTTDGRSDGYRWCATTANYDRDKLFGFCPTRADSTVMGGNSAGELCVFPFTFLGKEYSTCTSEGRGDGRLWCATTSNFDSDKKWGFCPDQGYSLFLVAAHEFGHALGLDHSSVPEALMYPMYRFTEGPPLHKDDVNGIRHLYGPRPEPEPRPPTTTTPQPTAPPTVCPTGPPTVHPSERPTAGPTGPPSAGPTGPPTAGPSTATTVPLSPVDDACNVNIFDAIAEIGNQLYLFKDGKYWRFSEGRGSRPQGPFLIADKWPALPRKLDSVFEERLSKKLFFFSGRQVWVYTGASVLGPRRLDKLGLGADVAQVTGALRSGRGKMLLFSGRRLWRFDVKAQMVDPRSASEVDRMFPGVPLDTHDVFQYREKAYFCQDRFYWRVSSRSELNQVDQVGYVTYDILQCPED
Chain of 72 kDa type IV collagenase (Homo sapiens) (P08253 110-660 limits assumed): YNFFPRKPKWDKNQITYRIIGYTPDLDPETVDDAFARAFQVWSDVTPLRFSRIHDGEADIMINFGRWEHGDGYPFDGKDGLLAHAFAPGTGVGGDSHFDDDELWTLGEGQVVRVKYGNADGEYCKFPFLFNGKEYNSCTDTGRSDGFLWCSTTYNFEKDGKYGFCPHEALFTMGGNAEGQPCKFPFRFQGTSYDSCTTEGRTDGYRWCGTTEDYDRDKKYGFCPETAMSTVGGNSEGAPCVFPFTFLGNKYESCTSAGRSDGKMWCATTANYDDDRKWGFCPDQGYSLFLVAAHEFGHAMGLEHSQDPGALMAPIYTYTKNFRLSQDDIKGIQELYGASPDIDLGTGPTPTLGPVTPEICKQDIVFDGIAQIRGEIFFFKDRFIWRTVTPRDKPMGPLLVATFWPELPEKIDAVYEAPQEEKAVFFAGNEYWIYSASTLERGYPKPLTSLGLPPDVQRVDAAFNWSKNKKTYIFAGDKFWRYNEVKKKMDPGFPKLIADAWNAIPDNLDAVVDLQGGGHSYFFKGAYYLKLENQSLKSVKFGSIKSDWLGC

As to `Nc1cc(Cl)c2cccnc2c1O`, in [1], the inhibition entry is “Active”. In data set [2], the pIC50 is 4.15. Further, the inhibition result in [3] is “Dose-Dependent Effect”.
`CCCC(C)C1(CC)C(=O)NC(=O)NC1=O` (stereo unspecified) showed an inhibition in data set [4] greater than 85%.
Consider `Oc1c(Cl)cc(Cl)c2cccnc12` [CHLOROXINE], for which the negative logarithm of the Kd (pKd) in [5] is 5.62. Besides, the viability at 4 h, up to 100 µM in data set [6] is greater than 95%. Moreover, the inhibition result in data set [7] and in data set [8] was “inactive” in each case. In addition, the inhibition result in data set [1] and in [4] was “Active” in each case. Further, the negative-log IC50 (pIC50) is 4.59 in data set [2], 4.80 in data set [9] and 4.71 at Collagenase 3 [10].
Regarding `Oc1c(I)cc(Cl)c2cccnc12` [CLIOQUINOL], the inhibition result (at Collagenase 3 [11]; in data set [7]; in [8]; in [15]) was “inactive” each time. The inhibition in data set [12] was less than 5%; on Collagenase 3 [13], less than 5%; in data set [14], less than 5%; in data set [16], less than 5%; in [4], 83%. Moreover, in data set [5], the pKd was 5.92. For the same compound, the viability at 4 h, up to 100 µM in [6] was greater than 95%. For the same compound, in [1], the inhibition entry is “Active”. The negative logarithm of the IC50 (pIC50) in [2] is 4.57.
